According to PMC11681159, “Bee pollen peptides as potent tyrosinase inhibitors with anti-melanogenesis effects in murine b16f10 melanoma cells and zebrafish embryos” (Scientific Reports, 2024):
Ends that are not written are not given here.

Legend:
Type in all cases: cell-based, mouse
[1] = test system: TYR in B16F10 melanoma cells; assay: Cellular TYR assay; settings: VY-9 1.6 µM, 48 h, L-DOPA, 490 nm
Experimental: In order to assess the rate of oxidation for L-DOPA, culture flasks were used to first grow B16F10 cells (1 × 10^5 cells/flask) for 24 h. […] Cell harvesting was conducted by trypsinization and the cells were then rinsed twice in cold PBS. In the next step, PBS buffer (0.2 mL, pH 6.8) which contained 1% (w/v) Triton X-100 and 1 mM PMSF was introduced to the lysed cell pellets, whereupon amounts of 100 µL of the lysed cells were added to a 96-well plate by pipette, along with 100 µL of 2 mM L-DOPA. This was followed by a one-hour incubation period while the temperature was maintained at 37 °C. A microplate reader was then used to detect the formation of dopachrome in the mixture at 490 nm. The findings are presented in terms of percentage of the control, while arbutin (0.2 mM) served as the positive control. Each test was carried out in triplicate, with the findings presented in the form of mean ± standard deviation.

B16F10 melanoma cells = assay: Melanin content assay in B16F10 cells; settings: VY-9 1.6 µM, 48 h, 405 nm
Experimental: In order to assess melanin content, culture flasks were used to grow B16F10 cells (1 × 10^5 cells/flask) for 24 h. […] Cell harvesting was conducted by trypsinization and the cells were then rinsed twice in cold PBS. The cell pellets were then dissolved in 0.3 mL of 1 N NaOH to produce solutions which were heated to 90 °C for a one-hour period. The lysates were then placed in a centrifuge for 10 min at 3,000 × g whereupon a microplate reader was used to assess the melanin quantity at 405 nm. The protein content in the supernatant was evaluated using the Bradford protein assay with the findings presented in the form of a percentage of the control. Arbutin (0.2 mM) served as the positive control. Each trial was carried out in triplicate, with results presented in the form of mean ± standard deviation.

Tyr = assay: qRT-PCR, Tyr mRNA; settings: B16F10, 48 h
Experimental: A 6-well plate was used to seed B16F10 cells at 1 × 10^5 cells per well prior to overnight incubation in a 5% CO2 humid atmosphere at 37°C. […] Harvesting was conducted via removal of the supernatant, and the cells were rinsed twice in PBS (phosphate-buffered saline). The PureLink™RNA Mini Kit (Invitrogen™, USA) was then used to extract total RNA in line with the guidance of the manufacturer. RNA concentration was assessed at 260 nm with a NanoDrop 2000 UV-Vis spectrophotometer (Thermo Fisher Scientific, Inc.). Oligo-dT primers and a Precision nanoScript II Reverse Transcription Kit (PrimerDesign, Camberley, UK) were used to perform the reverse transcription of 1 µg of total RNA to cDNA in line with the guidance of the manufacturer. MyGo Pro®Real time PCR apparatus (IT-IS International Ltd., Stokesley, UK) was then used to perform the qRT-PCR assays in which 20 µL of PCR reaction contained 1 µL of cDNA, 7 µL of ultrapure water, 1 µL of each primer […], and 10 µL of 2×qPCRBIO SyGreen Mix (PCR Biosystems Ltd, London, UK). […] The relative gene expression level could then be calculated via the cycle threshold (Ct) value, while the role of endogenous control for data normalization was occupied by Gapdh (the housekeeping gene). […]

VDGYPAAGY [VY-9, Val-Asp-Gly-Tyr-Pro-Ala- Ala-Gly-Tyr]
cellular TYR activity, rate of inhibition [1]: 44.88% | reduction in melanin content (B16F10 melanoma cells): 52.31% | Tyr mRNA expression vs control (Tyr; 1.6 µM): significantly reduced the expression levels of all measured genes | concentration from which Tyr mRNA expression decreased (Tyr; vs control): 0.4 µM
